Reference: publication PMC9182405, “Rapid Screening of Lipase Inhibitors in Scutellaria baicalensis by Using Porcine Pancreatic Lipase Immobilized on Magnetic Core–Shell Metal–Organic Frameworks” (Molecules, 2022)

Assays:
[1] = target: T1, porcine pancreatic lipase (PPL) (Sus scrofa, UniProt P00591); assay: p-nitrophenol ester hydrolysis assay, absorbance at […] nm, free PPL; also ligand fishing with immobilized PPL; assay type: biochemical
T1 construct: gene PNLIP

[2] = target: T1, porcine pancreatic lipase (PPL); assay: p-nitrophenol ester hydrolysis assay, absorbance at […] nm, free PPL; in ligand fishing some nonspecific adsorption to blank MMOF; assay type: biochemical

T1 sequence (P00591 whole entry): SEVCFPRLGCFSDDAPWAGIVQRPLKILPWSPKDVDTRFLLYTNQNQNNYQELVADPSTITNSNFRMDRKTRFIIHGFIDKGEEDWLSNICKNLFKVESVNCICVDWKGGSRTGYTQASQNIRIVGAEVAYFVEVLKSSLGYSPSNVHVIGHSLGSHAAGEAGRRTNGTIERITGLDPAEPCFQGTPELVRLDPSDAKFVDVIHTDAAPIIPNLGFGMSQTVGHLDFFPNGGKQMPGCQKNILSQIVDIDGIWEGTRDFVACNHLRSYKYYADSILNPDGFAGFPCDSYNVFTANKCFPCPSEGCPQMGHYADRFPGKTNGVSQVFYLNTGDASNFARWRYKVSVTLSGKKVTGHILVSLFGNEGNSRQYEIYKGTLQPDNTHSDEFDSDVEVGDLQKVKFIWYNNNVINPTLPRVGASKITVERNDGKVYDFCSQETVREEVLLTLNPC

| SMILES | IC50 [1] [µM] | IC50 [2] [µM] |
| --- | --- | --- |
| O=C(O)[C@H]1O[C@@H](Oc2cc3oc(-c4ccccc4)cc(=O)c3c(O)c2O)[C@H](O)[C@@H](O)[C@@H]1O [compound 3, Baicalin] | 242 ± 5.6 |  |
| COc1c(O)cc(O)c2c(=O)cc(-c3ccccc3)oc12 [compound 7, Wogonin] |  | 168 ± 8.4 |
| COc1c(O)cc2oc(-c3ccccc3)cc(=O)c2c1O [compound 8, Oroxylin A] | 82.7 ± 3.6 |  |
